In BigSolDB 2.1:

NC(N)=O
solubility (mole fraction)
Conditions | in ethanol | in isobutanol | in isopentanol | in isopropanol | in methanol | in n-butanol | in n-pentanol | in n-propanol | in water
293.15 K | 0.0395 | 0.017 | 0.0146 | 0.0253 | 0.0845 | 0.0163 | 0.0137 | 0.0246 | 0.252
303.15 K | 0.0548 | 0.0242 | 0.0162 | 0.0306 | 0.104 | 0.0209 | 0.0183 | 0.0402 | 0.294
318.15 K | 0.0874 | 0.0302 | 0.026 | 0.0425 | 0.165 | 0.0292 | 0.0241 | 0.0384 | 0.36
333.15 K | 0.127 | 0.0469 | 0.0368 | 0.058 | 0.225 | 0.0412 | 0.0354 | 0.0722 | 0.41
343.15 K | 0.155 | 0.0529 | 0.0451 | 0.0669 | 0.266 | 0.0504 | 0.0424 | 0.0704 | 0.465
